Measured values taken from PMC9304199, “A small molecule CFTR potentiator restores ATP‐dependent channel gating to the cystic fibrosis mutant G551D‐CFTR” (British Journal of Pharmacology, 2022).
pEC50: −log10 of the molar value.

Tests used:
[1] = biological target: G551D‐CFTR (Homo sapiens, UniProt P13569, G551D); assay: Automated planar patch-clamp whole-cell Cl− currents in HEK cells; type: cell-based; design: expressed in transfected cells; conditions: for EC50: G551D‐CFTR HEK cells, whole-cell currents, automated electrophysiology, 23°C, read-out: EC50 (μM) (95% CI); for Emax: HEK293, read-out: Maximal effect (%) (95% CI)
Procedure: For CFTR studies using automated electrophysiology and single-channel recording, we used baby hamster kidney (BHK) cells (RRID:CVCL_1915) and human embryonic kidney (HEK) 293 cells (RRID:CVCL_0045) stably expressing wild-type human CFTR and the CFTR variants F508del- and […] et al., [2002]; Xu et al., [2014]). […] HEK cells expressing CFTR variants were generated using the Flp-InTM system as described above for F508del- and G551D-CFTR-expressing FRT cells. They were cultured in Dulbecco's modified Eagle's medium (glucose, 1.5 g·L^-1; sodium pyruvate, 110 mg·L^-1) supplemented with 10% FBS (PAA Laboratories), GlutaMAXTM and hygromycin-B (150 μg·ml^-1; InvitrogenTM, Thermo Fisher Scientific) at 37°C in a humidified atmosphere with 5% CO2. Prior to study, F508del-CFTR expressed in HEK cells was trafficked to the plasma membrane by low temperature incubation (27°C for 24-72 h). The single-channel behaviour of human CFTR in excised membrane patches from different mammalian cell lines heterologously expressing CFTR is equivalent (wild-type CFTR, Chen et al., [2009]; F508del-CFTR, Bose et al., [2019]; and G551D-CFTR, J Liu, Y Wang, Z Cai, and DN Sheppard, unpublished observations). […] The continuous lines are the fit of sigmoidal concentration-response functions to mean data. […] (Figure S2D: Normality Test (Shapiro-Wilk), P = 0.124 (passed); Equal Variance Test (Brown-Forsythe), P = 0.092 (passed)). Click here for additional data file.

[2] = biological target: F508del‐CFTR (Homo sapiens, UniProt P13569, DEL508-508); assay: Fluorescence-based halide flux assay (I−-induced quenching of YFP fluorescence) in FRT cells; type: cell-based; conditions: exploratory data
Procedure: Fischer rat thyroid (FRT) epithelial cells (RRID:CVCL_A6IE) expressing CFTR variants were used for functional studies with halide flux and Ussing chamber techniques. FRT cells stably expressing the F508del variant with the V470 polymorphism and the halide sensor yellow fluorescent protein (YFP)‐H148Q/I152L (F508del‐CFTR‐YFP‐FRT cells) (Galietta et al., [2001]) were obtained from LJV Galietta (Telethon Institute for Genetics and Medicine, Pozzuoli, Italy). They were cultured in Coon's modified Ham's F‐12 medium supplemented with 10% FBS, 2‐mM GlutaMAX™, 0.27% NaHCO3, 100 U·ml^−1 penicillin and 100 μg·ml^−1 streptomycin and 0.8 mg·ml^−1 zeocin at 37°C in a humidified atmosphere with 5% CO2. […]
CFTR‐mediated anion transport was quantified by measuring I^−‐induced quenching of YFP fluorescence using a microtitre plate reader following the method of Galietta et al. ([2001]). […] Using a fluorescence microtitre plate reader (FLIPR384; Molecular Devices, San Jose, CA, USA) equipped with 500‐nm excitation and 535‐nm emission filters, an initial fluorescence reading was recorded before addition of PBS‐iodide solution (composition [mM]: 137 NaI, 2.7 KCl, 8.1 Na2HPO4, 1.5 KH2PO4, 1 CaCl2, and 0.5 MgCl2, pH 7.40) into each well and 21 s later a second fluorescence reading was acquired. […]

Chain of G551D‐CFTR (P13569 whole entry G551D): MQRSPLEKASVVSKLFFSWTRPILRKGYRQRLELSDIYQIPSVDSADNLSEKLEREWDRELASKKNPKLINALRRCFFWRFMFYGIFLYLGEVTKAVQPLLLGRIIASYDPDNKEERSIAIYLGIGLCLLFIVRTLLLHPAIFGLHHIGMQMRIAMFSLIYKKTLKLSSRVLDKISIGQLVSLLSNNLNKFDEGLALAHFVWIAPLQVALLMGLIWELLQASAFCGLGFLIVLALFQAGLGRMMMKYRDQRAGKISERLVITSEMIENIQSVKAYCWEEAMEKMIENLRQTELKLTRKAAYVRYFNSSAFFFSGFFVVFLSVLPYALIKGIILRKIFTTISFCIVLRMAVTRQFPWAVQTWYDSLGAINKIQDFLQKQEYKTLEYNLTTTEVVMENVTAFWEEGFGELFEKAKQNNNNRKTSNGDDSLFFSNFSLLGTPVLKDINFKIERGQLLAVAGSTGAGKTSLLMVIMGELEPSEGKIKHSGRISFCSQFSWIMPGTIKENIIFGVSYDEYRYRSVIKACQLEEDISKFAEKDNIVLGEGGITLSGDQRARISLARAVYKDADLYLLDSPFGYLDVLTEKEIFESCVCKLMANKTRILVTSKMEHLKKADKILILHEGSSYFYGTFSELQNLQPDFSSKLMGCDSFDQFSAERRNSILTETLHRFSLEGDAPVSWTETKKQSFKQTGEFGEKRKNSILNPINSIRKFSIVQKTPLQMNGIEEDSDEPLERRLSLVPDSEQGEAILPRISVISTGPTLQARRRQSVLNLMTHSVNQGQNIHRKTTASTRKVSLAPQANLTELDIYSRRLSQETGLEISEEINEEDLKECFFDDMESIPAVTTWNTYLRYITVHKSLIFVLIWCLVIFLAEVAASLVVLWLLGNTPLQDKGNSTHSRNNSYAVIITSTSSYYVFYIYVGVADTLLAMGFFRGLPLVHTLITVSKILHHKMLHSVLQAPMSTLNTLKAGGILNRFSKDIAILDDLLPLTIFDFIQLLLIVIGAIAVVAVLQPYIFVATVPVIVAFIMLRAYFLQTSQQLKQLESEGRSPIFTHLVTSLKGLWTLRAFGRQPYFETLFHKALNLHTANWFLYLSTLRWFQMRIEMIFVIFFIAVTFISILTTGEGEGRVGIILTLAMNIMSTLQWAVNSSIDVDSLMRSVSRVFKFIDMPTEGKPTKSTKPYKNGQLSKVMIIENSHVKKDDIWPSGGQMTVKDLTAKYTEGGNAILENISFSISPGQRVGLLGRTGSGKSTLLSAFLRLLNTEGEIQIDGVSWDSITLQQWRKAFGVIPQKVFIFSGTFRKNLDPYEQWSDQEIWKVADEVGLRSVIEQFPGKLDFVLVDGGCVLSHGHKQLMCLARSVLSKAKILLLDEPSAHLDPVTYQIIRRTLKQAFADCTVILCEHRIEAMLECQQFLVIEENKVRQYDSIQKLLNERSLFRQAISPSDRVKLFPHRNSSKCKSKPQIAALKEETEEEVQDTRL
Chain of F508del‐CFTR (P13569 with tags, fused parts or gaps DEL508-508): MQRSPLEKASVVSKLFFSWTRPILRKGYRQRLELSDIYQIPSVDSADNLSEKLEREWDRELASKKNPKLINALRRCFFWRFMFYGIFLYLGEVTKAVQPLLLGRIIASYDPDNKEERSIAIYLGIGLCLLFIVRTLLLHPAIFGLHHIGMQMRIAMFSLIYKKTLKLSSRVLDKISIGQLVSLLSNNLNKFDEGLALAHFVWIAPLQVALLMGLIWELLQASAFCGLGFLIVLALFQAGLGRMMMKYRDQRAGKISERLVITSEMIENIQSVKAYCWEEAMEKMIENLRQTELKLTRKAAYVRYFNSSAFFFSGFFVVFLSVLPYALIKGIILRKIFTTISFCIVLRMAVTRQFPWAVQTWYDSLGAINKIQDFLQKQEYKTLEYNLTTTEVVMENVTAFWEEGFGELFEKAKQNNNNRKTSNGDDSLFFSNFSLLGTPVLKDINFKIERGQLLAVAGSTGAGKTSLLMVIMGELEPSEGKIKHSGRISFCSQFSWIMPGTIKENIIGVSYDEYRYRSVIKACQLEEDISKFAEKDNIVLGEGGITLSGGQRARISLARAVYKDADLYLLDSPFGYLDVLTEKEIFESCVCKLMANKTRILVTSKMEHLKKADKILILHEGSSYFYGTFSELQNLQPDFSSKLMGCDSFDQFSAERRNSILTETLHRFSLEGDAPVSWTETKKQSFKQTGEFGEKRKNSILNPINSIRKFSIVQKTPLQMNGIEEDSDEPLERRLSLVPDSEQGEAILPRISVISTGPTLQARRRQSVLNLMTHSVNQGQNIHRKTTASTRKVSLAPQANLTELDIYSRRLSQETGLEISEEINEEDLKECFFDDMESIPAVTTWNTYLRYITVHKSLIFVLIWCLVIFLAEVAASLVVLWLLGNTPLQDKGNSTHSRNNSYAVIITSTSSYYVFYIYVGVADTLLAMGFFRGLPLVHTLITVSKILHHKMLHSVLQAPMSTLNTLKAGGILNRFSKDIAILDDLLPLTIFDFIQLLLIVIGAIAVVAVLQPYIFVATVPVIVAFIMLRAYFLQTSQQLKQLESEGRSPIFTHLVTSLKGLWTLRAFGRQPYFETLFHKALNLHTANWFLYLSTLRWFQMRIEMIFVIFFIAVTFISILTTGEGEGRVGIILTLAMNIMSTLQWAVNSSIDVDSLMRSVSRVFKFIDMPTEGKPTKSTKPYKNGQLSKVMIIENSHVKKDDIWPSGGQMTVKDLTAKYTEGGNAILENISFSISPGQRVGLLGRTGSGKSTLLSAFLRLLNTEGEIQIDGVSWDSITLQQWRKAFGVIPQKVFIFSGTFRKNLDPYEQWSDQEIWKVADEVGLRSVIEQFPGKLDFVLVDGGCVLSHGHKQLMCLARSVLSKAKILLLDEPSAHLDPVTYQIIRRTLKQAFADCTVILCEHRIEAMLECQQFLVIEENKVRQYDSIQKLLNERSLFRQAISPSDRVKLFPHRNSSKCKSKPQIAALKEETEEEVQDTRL

`CC(C)(C)c1cc(C(C)(C)C)c(NC(=O)c2c[nH]c3ccccc3c2=O)cc1O` [ivacaftor, reference compound] showed an EC50 [1] of 0.82 µM and an Emax [1] of 70%.
With `Cc1ncccc1CNC(=O)c1ccc2c(c1)CC[C@H]1C[C@](O)(CCC(F)(F)F)CC[C@]21Cc1ccccc1` (racemic) [CP‐628006, rac‐(4bR,7R,8aS)‐4b‐benzyl‐7‐hydroxy‐N‐((2‐methylpyridin‐3‐yl)methyl)‐7‐(3,3,3‐trifluoropropyl)‐4b,5,6,7,8,8a,9,10‐octahydrophenanthrene‐2‐carboxamide] the “maximal response compared with ivacaftor” value ([2]; FRT cells co-expressing low temperature-rescued F508del‐CFTR and YFP) was “approximately half that of ivacaftor”, the pEC50 ([2]; FRT cells co-expressing low temperature-rescued F508del‐V470‐CFTR and YFP, forskolin 20 μM, scaled to DMSO 0% and genistein 50 μM 100%, read-out: EC50 for potentiation of CFTR-mediated anion transport) was 6.40 and the EC50 [1] was 5.13 µM. It also gave an Emax [1] of 72%.
